Where two headings read alike, the source gives them in different places.
How the values were obtained:
D1 (h) = target: T1, D1 (h) (Homo sapiens, UniProt P21728); experiment: CEREP binding panel; settings: antagonist radioligand, read-out: % Inhibition of Control Specific Binding
T1 construct: purchased Millipore KinaseProfiler (kinases); Cerep (receptors and ion channels)

RSE = target: T2, RSE (Homo sapiens, UniProt Q06418); experiment: Millipore kinase panel; type: biochemical; settings: read-out: % Control
T2 construct: purchased Millipore KinaseProfiler (kinases); Cerep (receptors and ion channels)

Clint determination [1] = type: in vitro ADME; settings: human, microsomes, pH 7.4, human microsomes, read-out: Clint (μL/min/mg) Human
ROS = target: T3, ROS (Homo sapiens, UniProt P08922); experiment: Millipore kinase panel; type: biochemical; settings: read-out: % Control
T3 construct: purchased Millipore KinaseProfiler (kinases); Cerep (receptors and ion channels)

EPHA2 = target: T4, EPHA2 (Homo sapiens, UniProt P29317); experiment: Millipore kinase panel; type: biochemical; settings: read-out: % Control
T4 construct: purchased Millipore KinaseProfiler (kinases); Cerep (receptors and ion channels)

CDK6/CYCLIND3 = target: T5, CDK6/CYCLIND3 (Homo sapiens, UniProt Q00534); experiment: Millipore kinase panel; type: biochemical; settings: read-out: % Control
T5 construct: purchased Millipore KinaseProfiler (kinases); Cerep (receptors and ion channels)

PAK4 = target: T6, PAK4 (Homo sapiens, UniProt O96013); experiment: Millipore kinase panel; type: biochemical; settings: read-out: % Control
T6 construct: purchased Millipore KinaseProfiler (kinases); Cerep (receptors and ion channels)

MNK2 = target: T7, MNK2 (Homo sapiens, UniProt Q9HBH9); experiment: Millipore kinase panel; type: biochemical; settings: read-out: % Control
T7 construct: purchased Millipore KinaseProfiler (kinases); Cerep (receptors and ion channels)

EPHA7 = target: T8, EPHA7 (Homo sapiens, UniProt Q15375); experiment: Millipore kinase panel; type: biochemical; settings: read-out: % Control
T8 construct: purchased Millipore KinaseProfiler (kinases); Cerep (receptors and ion channels)

JNK1ALPHA1 = target: T9, JNK1ALPHA1 (Homo sapiens, UniProt P45983); experiment: Millipore kinase panel; type: biochemical; settings: read-out: % Control
T9 construct: purchased Millipore KinaseProfiler (kinases); Cerep (receptors and ion channels)

Clint determination [2] = type: in vitro ADME; settings: rat, microsomes, pH 7.4, rat microsomes, read-out: Clint (μL/min/mg) Rat
Clint determination [3] = type: in vitro ADME; settings: mouse, microsomes, pH 7.4, mouse microsomes, read-out: Clint (μL/min/mg) Mouse
CCR1 (h) = target: T10, CCR1 (h) (Homo sapiens, UniProt P32246); experiment: CEREP binding panel; settings: agonist radioligand, read-out: % Inhibition of Control Specific Binding
T10 construct: purchased Millipore KinaseProfiler (kinases); Cerep (receptors and ion channels)

NOP (ORL1) (h) = target: T11, NOP (ORL1) (h) (Homo sapiens, UniProt P41146); experiment: CEREP binding panel; settings: agonist radioligand, read-out: % Inhibition of Control Specific Binding
T11 construct: purchased Millipore KinaseProfiler (kinases); Cerep (receptors and ion channels)

MKK4 = experiment: Millipore kinase panel; type: biochemical; settings: 1 μM, ATP at Km
CAMKIIBETA = target: T12, CAMKIIBETA (Homo sapiens, UniProt Q13554); experiment: Millipore kinase panel; type: biochemical; settings: read-out: % Control
T12 construct: purchased Millipore KinaseProfiler (kinases); Cerep (receptors and ion channels)

B2 (h) = target: T13, B2 (h) (Homo sapiens, UniProt P30411); experiment: CEREP binding panel; settings: agonist radioligand, read-out: % Inhibition of Control Specific Binding
T13 construct: purchased Millipore KinaseProfiler (kinases); Cerep (receptors and ion channels)

DYRK2 = target: T14, DYRK2 (Homo sapiens, UniProt Q92630); experiment: Millipore kinase panel; type: biochemical; settings: read-out: % Control
T14 construct: purchased Millipore KinaseProfiler (kinases); Cerep (receptors and ion channels)

NEK7 = target: T15, NEK7 (Homo sapiens, UniProt Q8TDX7); experiment: Millipore kinase panel; type: biochemical; settings: read-out: % Control
T15 construct: purchased Millipore KinaseProfiler (kinases); Cerep (receptors and ion channels)

DRAK1 = target: T16, DRAK1 (Homo sapiens, UniProt Q9UEE5); experiment: Millipore kinase panel; type: biochemical; settings: read-out: % Control
T16 construct: purchased Millipore KinaseProfiler (kinases); Cerep (receptors and ion channels)

MST1 = target: T17, MST1 (Homo sapiens, UniProt Q13043); experiment: Millipore kinase panel; type: biochemical; settings: read-out: % Control
T17 construct: purchased Millipore KinaseProfiler (kinases); Cerep (receptors and ion channels)

TAK1 = target: T18, TAK1 (Homo sapiens, UniProt O43318); experiment: Millipore kinase panel; type: biochemical; settings: read-out: % Control
T18 construct: purchased Millipore KinaseProfiler (kinases); Cerep (receptors and ion channels)

TAO3 = target: T19, TAO3 (Homo sapiens, UniProt Q9H2K8); experiment: Millipore kinase panel; type: biochemical; settings: read-out: % Control
T19 construct: purchased Millipore KinaseProfiler (kinases); Cerep (receptors and ion channels)

PRKAA2 = target: T20, PRKAA2 (Homo sapiens, UniProt P54646); experiment: Millipore kinase panel; type: biochemical; settings: read-out: % Control
T20 construct: purchased Millipore KinaseProfiler (kinases); Cerep (receptors and ion channels)

AURKC = target: T21, AURKC (Homo sapiens, UniProt Q9UQB9); experiment: Millipore kinase panel; type: biochemical; settings: read-out: % Control
T21 construct: purchased Millipore KinaseProfiler (kinases); Cerep (receptors and ion channels)

TIE2(Y897S) = target: T22, TIE2(Y897S) (Homo sapiens, UniProt Q02763, Y897S); experiment: Millipore kinase panel; type: biochemical; settings: read-out: % Control
T22 construct: purchased Millipore KinaseProfiler (kinases); Cerep (receptors and ion channels)

ABL (M351T) = target: T23, ABL (M351T) (Homo sapiens, UniProt P00519, M351T); experiment: Millipore kinase panel; type: biochemical; settings: read-out: % Control
T23 construct: purchased Millipore KinaseProfiler (kinases); Cerep (receptors and ion channels)

EGFR(T790M,L858R) = target: T24, EGFR(T790M,L858R) (Homo sapiens, UniProt P00533, L858R/T790M); experiment: Millipore kinase panel; type: biochemical; settings: read-out: % Control
T24 construct: purchased Millipore KinaseProfiler (kinases); Cerep (receptors and ion channels)

ABL (Q252H) = target: T25, ABL (Q252H) (Homo sapiens, UniProt P00519, Q252H); experiment: Millipore kinase panel; type: biochemical; settings: read-out: % Control
T25 construct: purchased Millipore KinaseProfiler (kinases); Cerep (receptors and ion channels)

RET(V804M) = target: T26, RET(V804M) (Homo sapiens, UniProt P07949, V804M); experiment: Millipore kinase panel; type: biochemical; settings: read-out: % Control
T26 construct: purchased Millipore KinaseProfiler (kinases); Cerep (receptors and ion channels)

RET (V804L) = target: T27, RET (V804L) (Homo sapiens, UniProt P07949, V804L); experiment: Millipore kinase panel; type: biochemical; settings: read-out: % Control
T27 construct: purchased Millipore KinaseProfiler (kinases); Cerep (receptors and ion channels)

ABL(Y253F) = target: T28, ABL(Y253F) (Homo sapiens, UniProt P00519, Y253F); experiment: Millipore kinase panel; type: biochemical; settings: read-out: % Control
T28 construct: purchased Millipore KinaseProfiler (kinases); Cerep (receptors and ion channels)

TAO2 = target: T29, TAO2 (Homo sapiens, UniProt Q9UL54); experiment: Millipore kinase panel; type: biochemical; settings: read-out: % Control
T29 construct: purchased Millipore KinaseProfiler (kinases); Cerep (receptors and ion channels)

CYP450 2D6 = CYP450 2D6 (Homo sapiens, UniProt P10635); experiment: CYP450 inhibition; type: in vitro ADME
CHK2(R145W) = target: T30, CHK2(R145W) (Homo sapiens, UniProt O96017, R145W); experiment: Millipore kinase panel; type: biochemical; settings: read-out: % Control
T30 construct: purchased Millipore KinaseProfiler (kinases); Cerep (receptors and ion channels)

PI3 KINASE (H1047R/P85A) = target: T31, PI3 KINASE (H1047R/P85A) (Homo sapiens, UniProt P42336, H1047R); experiment: Millipore kinase panel; type: biochemical; settings: read-out: % Control
T31 construct: purchased Millipore KinaseProfiler (kinases); Cerep (receptors and ion channels)

EGFR(L861Q) = target: T32, EGFR(L861Q) (Homo sapiens, UniProt P00533, L861Q); experiment: Millipore kinase panel; type: biochemical; settings: read-out: % Control
T32 construct: purchased Millipore KinaseProfiler (kinases); Cerep (receptors and ion channels)

CKIT(V654A) = target: T33, CKIT(V654A) (Homo sapiens, UniProt P10721, V654A); experiment: Millipore kinase panel; type: biochemical; settings: read-out: % Control
T33 construct: purchased Millipore KinaseProfiler (kinases); Cerep (receptors and ion channels)

CYP450 3A4 = CYP450 3A4 (Homo sapiens, UniProt P08684); experiment: CYP450 inhibition; type: in vitro ADME
CAMKIDELTA = target: T34, CAMKIDELTA (Homo sapiens, UniProt Q8IU85); experiment: Millipore kinase panel; type: biochemical; settings: read-out: % Control
T34 construct: purchased Millipore KinaseProfiler (kinases); Cerep (receptors and ion channels)

T18 sequence (O43318 1-303 limits assumed): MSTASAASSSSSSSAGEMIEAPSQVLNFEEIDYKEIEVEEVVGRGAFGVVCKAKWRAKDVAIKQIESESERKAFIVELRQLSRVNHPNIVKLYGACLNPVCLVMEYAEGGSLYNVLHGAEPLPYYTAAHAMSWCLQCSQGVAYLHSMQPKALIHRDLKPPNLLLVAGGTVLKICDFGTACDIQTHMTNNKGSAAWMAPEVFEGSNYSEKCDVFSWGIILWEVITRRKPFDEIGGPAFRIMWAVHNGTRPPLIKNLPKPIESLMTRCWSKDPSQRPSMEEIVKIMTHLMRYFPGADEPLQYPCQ
T5 sequence (Q00534 whole entry): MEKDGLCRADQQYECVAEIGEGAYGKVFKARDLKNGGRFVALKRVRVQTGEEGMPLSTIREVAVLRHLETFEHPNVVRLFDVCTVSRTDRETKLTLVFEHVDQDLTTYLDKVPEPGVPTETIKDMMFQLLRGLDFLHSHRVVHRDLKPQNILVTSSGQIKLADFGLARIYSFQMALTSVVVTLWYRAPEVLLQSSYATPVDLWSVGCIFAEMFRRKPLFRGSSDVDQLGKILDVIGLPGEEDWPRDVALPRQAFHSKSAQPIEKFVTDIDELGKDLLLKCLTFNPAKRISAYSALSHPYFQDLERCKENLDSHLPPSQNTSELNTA
T5 sequence (P30281 whole entry partner): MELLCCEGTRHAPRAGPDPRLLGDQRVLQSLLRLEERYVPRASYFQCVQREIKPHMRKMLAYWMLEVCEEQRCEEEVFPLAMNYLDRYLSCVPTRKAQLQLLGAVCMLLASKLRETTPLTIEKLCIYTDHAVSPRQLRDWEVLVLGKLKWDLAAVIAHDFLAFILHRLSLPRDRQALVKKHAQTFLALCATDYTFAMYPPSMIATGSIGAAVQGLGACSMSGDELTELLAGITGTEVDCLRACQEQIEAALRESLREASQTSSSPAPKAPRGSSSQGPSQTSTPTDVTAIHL
T6 sequence (O96013 whole entry): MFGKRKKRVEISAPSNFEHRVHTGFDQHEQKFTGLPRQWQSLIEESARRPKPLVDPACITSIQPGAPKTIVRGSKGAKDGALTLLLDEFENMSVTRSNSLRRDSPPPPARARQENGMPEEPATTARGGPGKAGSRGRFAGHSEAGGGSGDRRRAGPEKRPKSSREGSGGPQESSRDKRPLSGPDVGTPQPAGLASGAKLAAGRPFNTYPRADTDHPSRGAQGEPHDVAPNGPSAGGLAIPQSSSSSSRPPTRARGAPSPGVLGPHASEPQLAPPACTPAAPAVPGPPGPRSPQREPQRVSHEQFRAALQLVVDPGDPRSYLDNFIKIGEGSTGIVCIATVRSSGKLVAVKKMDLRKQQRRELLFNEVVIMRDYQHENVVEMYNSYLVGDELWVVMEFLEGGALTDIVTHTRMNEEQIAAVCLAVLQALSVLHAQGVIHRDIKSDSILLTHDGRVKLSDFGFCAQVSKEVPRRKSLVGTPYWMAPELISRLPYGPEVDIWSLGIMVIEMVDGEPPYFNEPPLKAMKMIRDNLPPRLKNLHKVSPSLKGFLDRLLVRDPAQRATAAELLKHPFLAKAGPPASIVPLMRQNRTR
T7 sequence (Q9HBH9 whole entry): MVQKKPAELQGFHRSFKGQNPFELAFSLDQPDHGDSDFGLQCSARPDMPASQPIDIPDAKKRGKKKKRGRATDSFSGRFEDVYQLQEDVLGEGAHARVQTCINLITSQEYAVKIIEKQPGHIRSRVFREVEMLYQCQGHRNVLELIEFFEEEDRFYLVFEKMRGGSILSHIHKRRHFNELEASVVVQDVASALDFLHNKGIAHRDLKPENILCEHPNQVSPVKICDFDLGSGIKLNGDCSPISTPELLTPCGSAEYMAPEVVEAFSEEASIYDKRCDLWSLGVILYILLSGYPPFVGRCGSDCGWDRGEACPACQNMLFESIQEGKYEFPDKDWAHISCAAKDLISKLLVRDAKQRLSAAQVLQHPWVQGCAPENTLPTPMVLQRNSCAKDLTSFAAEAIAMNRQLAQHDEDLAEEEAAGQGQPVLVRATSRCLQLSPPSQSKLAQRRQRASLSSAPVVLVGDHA
T1 sequence (P21728 whole entry): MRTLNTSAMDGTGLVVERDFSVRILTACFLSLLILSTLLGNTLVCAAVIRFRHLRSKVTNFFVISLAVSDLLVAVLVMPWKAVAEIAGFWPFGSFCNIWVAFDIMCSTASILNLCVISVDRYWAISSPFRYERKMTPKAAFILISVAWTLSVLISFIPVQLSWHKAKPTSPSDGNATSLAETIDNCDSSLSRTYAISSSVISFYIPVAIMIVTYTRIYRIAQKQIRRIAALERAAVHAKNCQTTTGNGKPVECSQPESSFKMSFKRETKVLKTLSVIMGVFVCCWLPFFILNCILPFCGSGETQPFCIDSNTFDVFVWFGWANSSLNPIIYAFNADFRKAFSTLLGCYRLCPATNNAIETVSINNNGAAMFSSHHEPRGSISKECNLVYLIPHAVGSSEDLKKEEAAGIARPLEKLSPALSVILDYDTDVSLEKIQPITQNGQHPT
T3 sequence (P08922 28-2347): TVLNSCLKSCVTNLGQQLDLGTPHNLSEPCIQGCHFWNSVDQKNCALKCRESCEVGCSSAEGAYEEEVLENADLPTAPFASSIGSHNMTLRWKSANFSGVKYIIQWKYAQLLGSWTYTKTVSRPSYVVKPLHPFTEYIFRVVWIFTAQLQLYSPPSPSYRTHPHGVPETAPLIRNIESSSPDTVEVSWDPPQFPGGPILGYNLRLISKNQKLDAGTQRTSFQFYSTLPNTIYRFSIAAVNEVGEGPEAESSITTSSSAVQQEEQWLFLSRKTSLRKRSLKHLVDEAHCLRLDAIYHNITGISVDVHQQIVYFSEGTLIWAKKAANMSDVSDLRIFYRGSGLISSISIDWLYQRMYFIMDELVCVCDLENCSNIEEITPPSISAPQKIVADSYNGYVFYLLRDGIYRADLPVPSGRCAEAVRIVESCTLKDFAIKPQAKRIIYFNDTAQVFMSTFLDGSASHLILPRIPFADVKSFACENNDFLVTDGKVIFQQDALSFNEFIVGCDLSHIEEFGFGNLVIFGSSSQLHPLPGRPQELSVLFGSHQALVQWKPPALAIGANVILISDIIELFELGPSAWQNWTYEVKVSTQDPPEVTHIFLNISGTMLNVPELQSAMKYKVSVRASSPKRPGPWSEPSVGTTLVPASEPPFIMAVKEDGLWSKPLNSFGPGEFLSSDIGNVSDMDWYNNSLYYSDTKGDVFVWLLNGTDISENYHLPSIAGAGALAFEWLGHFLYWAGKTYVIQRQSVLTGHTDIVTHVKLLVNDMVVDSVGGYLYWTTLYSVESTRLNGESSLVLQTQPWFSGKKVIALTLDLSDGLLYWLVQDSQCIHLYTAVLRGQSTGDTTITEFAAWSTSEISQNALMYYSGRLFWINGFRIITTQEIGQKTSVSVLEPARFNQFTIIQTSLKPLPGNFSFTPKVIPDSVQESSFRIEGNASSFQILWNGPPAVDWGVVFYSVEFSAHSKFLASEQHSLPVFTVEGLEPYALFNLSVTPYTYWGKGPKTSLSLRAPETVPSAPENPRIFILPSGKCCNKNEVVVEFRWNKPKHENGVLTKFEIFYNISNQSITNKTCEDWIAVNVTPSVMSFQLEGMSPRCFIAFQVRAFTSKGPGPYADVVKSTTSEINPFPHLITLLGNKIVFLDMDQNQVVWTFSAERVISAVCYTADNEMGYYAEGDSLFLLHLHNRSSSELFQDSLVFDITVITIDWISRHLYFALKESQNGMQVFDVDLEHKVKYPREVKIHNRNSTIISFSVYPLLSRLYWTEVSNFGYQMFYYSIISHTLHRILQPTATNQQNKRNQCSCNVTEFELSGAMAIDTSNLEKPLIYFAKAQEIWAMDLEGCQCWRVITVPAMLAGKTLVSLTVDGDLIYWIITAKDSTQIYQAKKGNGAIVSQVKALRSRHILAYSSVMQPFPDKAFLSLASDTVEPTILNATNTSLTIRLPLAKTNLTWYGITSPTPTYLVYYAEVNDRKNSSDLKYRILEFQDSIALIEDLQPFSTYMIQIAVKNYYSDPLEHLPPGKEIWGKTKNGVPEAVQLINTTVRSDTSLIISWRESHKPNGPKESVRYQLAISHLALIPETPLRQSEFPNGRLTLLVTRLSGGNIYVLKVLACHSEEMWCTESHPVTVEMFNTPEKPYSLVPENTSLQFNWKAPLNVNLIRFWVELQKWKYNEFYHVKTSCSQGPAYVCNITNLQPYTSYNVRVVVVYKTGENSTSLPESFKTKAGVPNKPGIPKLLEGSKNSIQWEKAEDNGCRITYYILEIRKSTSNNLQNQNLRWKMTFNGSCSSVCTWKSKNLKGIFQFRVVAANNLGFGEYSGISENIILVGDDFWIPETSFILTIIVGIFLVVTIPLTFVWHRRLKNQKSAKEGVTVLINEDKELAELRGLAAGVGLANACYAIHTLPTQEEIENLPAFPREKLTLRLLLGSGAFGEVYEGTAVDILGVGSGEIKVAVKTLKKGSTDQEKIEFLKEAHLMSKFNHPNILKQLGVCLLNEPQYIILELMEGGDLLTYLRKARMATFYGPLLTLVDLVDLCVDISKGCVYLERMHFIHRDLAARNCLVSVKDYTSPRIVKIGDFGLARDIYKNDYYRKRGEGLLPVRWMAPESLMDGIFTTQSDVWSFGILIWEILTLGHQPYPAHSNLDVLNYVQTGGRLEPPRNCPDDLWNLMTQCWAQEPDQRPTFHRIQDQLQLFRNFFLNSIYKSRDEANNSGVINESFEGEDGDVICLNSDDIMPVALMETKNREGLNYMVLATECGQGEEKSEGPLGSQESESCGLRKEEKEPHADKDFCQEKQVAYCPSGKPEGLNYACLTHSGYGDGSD
T15 sequence (Q8TDX7 whole entry): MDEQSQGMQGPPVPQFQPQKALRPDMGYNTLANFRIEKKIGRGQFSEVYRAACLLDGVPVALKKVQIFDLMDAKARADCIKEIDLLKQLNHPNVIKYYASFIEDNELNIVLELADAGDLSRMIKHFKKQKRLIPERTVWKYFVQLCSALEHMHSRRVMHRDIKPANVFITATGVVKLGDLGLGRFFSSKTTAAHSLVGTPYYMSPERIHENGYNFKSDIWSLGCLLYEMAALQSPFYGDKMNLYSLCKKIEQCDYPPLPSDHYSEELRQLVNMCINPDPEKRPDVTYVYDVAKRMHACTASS

Row | Compound | inhibition at 10 µM (D1 (h)) [%] | remaining activity at 1 µM (RSE) [%] | remaining activity at 1 µM (ROS) [%] | remaining activity at 1 µM (EPHA2) [%] | remaining activity at 1 µM (CDK6/CYCLIND3) [%] | remaining activity at 1 µM (PAK4) [%] | remaining activity at 1 µM (MNK2) [%] | remaining activity at 1 µM (EPHA7) [%] | remaining activity at 1 µM (JNK1ALPHA1) [%] | inhibition at 10 µM (CCR1 (h)) [%] | inhibition at 10 µM (NOP (ORL1) (h)) [%] | % Control (MKK4) [%] | remaining activity at 1 µM (CAMKIIBETA) [%] | inhibition at 10 µM (B2 (h)) [%] | remaining activity at 1 µM (DYRK2) [%] | remaining activity at 1 µM (NEK7) [%] | remaining activity at 1 µM (TAK1) [%] | remaining activity at 1 µM (TAO3) [%] | other results
1 | O=C1NCCC12CCN(c1c(Cl)cncc1-c1ccc(N3CCOCC3)cc1)CC2 [Compound 44, 8-(3-Chloro-5-(4-morpholin-4-ylphenyl)pyridin-4-yl)-2,8-diazaspiro[4.5]decan-1-one] | 2 | 7 | 2 | 10 | 7 | -2 | 2 | -2 | 0 | 0 | 12 | 46 | 0 | 5 | 9 | -7 | -3 | -22 | microsomal CLint at 1 μM (Clint determination [1]): 115 µL/min/mg; microsomal CLint at 1 μM (Clint determination [2]): 41 µL/min/mg; microsomal CLint at 1 μM (Clint determination [3]): 290 µL/min/mg; remaining activity at 1 µM (DRAK1): 4%; remaining activity at 1 µM (MST1): 14%
2 | Cn1cc(-c2ccc(-c3cncc(Cl)c3N3CCC4(CCNC4=O)CC3)cc2)cn1 [Compound 74, 8-(3-Chloro-5-(4-(1-methyl-1H-pyrazol-4-yl)phenyl)pyridin-4-yl)-2,8-diazaspiro[4.5]decan-1-one] | 7 | -17 | 7 | -7 | -3 | 9 | 2 | 6 | -9 | -4 | 3 | 13 | 8 | 0 | -9 | 2 | 6 | -24 | remaining activity at 1 µM (PRKAA2): 2%; remaining activity at 1 µM (AURKC): -10%; remaining activity at 1 µM (TIE2(Y897S)): 4%; remaining activity at 1 µM (ABL (M351T)): 5%; remaining activity at 1 µM (EGFR(T790M,L858R)): -4%; remaining activity at 1 µM (ABL (Q252H)): -1%; remaining activity at 1 µM (RET(V804M)): -8%; remaining activity at 1 µM (RET (V804L)): -8%; remaining activity at 1 µM (ABL(Y253F)): -11%; remaining activity at 1 µM (TAO2): -15%; IC50 (CYP450 2D6): > 20 µM; remaining activity at 1 µM (CHK2(R145W)): 3%; remaining activity at 1 µM (PI3 KINASE (H1047R/P85A)): -1%; remaining activity at 1 µM (EGFR(L861Q)): 0%; remaining activity at 1 µM (CKIT(V654A)): -16%; IC50 (CYP450 3A4): 11.4 µM; remaining activity at 1 µM (CAMKIDELTA): -4%

Reference: PMC4767141, “Discovery of Potent, Orally Bioavailable, Small-Molecule Inhibitors of WNT Signaling from a Cell-Based Pathway Screen” (Journal of Medicinal Chemistry, 2015)
